Measurements as given in PubChem BioAssay AID248 (DTP/NCI, 2004).
Toxic doses and inconclusive results are not listed. Cut-off read from the data, not from the text of the source: active = T/C of 150% or more; inactive = T/C below 125%.

System: L1210 leukemia ip in BDF1 mice, survival T/C
Test: NCI In Vivo Anticancer Drug Screen. Data for tumor model L1210 Leukemia (intraperitoneal) in B6D2F1 (BDF1) mice
Details: endpoint: mean survival time, higher = longer survival
In short: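 Mice bearing the transplanted tumor received compound or vehicle. Survival of the treated group was divided by that of the vehicle-treated control group to give the ratio.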

[1] = dose: 100.0 mg/kg/injection, schedule: Q01DX001 (ip), vehicle: saline
[2] = dose: 200.0 mg/kg/injection, schedule: Q01DX001 (ip), vehicle: saline
[3] = dose: 100.0 mg/kg/injection, schedule: Q04DX002 (ip), vehicle: Klucel (hydroxypropylcellulose) (HPC)
[4] = dose: 200.0 mg/kg/injection, schedule: Q04DX002 (ip), vehicle: Klucel (hydroxypropylcellulose) (HPC)
[5] = dose: 400.0 mg/kg/injection, schedule: Q04DX002 (ip), vehicle: Klucel (hydroxypropylcellulose) (HPC)
[6] = dose: 50.0 mg/kg/injection, schedule: Q01DX001 (ip), vehicle: carboxymethylcellulose (CMC)
[7] = dose: 100.0 mg/kg/injection, schedule: Q01DX001 (ip), vehicle: carboxymethylcellulose (CMC)
[8] = dose: 200.0 mg/kg/injection, schedule: Q01DX001 (ip), vehicle: carboxymethylcellulose (CMC)
[9] = dose: 400.0 mg/kg/injection, schedule: Q01DX001 (ip), vehicle: carboxymethylcellulose (CMC)
[10] = dose: 100.0 mg/kg/injection, schedule: Q01DX009 (ip), vehicle: Klucel (hydroxypropylcellulose) (HPC)
[11] = dose: 200.0 mg/kg/injection, schedule: Q01DX009 (ip), vehicle: Klucel (hydroxypropylcellulose) (HPC)
[12] = dose: 400.0 mg/kg/injection, schedule: Q01DX009 (ip), vehicle: Klucel (hydroxypropylcellulose) (HPC)
[13] = dose: 200.0 mg/kg/injection, schedule: Q04DX003 (ip), vehicle: saline with Tween-80

Measured: T/C

O=S(=O)(Cl)OO/C=C\OOS(=O)(=O)Cl
inactive: [1] 101 % of control | [2] 108 % of control

NC(=O)N/N=C/c1ccc([N+](=O)[O-])cc1
inactive: [3] 96 % of control | [4] 110 % of control | [5] 107 % of control

COc1ccc(N2C(=O)CCC2=S)cc1
inactive: [6] 104 % of control | [7] 96 % of control | [8] 102 % of control | [9] 102 % of control

CNC(=O)Nc1ccc(OC)cc1OC
inactive: [10] 105 % of control | dose: 100.0 mg/kg/injection, schedule: Q04DX003 (ip), vehicle: Klucel (hydroxypropylcellulose) (HPC) 106 % of control | [11] 94 % of control | dose: 200.0 mg/kg/injection, schedule: Q04DX003 (ip), vehicle: Klucel (hydroxypropylcellulose) (HPC) 111 % of control | [12] 98 % of control | dose: 400.0 mg/kg/injection, schedule: Q04DX003 (ip), vehicle: Klucel (hydroxypropylcellulose) (HPC) 103 % of control

ClC1CCC[N-]C1.ClC1CCC[N-]C1.[Cl][Pt+2][Cl] (centres undefined)
inactive: dose: 50.0 mg/kg/injection, schedule: Q04DX003 (ip), vehicle: saline with Tween-80 102 % of control | dose: 100.0 mg/kg/injection, schedule: Q04DX003 (ip), vehicle: saline with Tween-80 104 % of control | [13] 102 % of control

c1ccc2c(c1)Sc1ccccc1S2
inactive: [6] 106 % of control | [7] 112 % of control | [8] 101 % of control | [9] 104 % of control

COC1OC2COC(c3ccccc3)OC2C(=O)C1OS(=O)(=O)c1ccc(C)cc1 (centres undefined)
inactive: [13] 89 % of control | dose: 400.0 mg/kg/injection, schedule: Q04DX003 (ip), vehicle: saline with Tween-80 86 % of control

C/C(=N\NC(N)=O)C1CCC(c2ccccc2)CC1 (centres undefined)
inactive: dose: 100.0 mg/kg/injection, schedule: Q01DX001 (ip), vehicle: Klucel (hydroxypropylcellulose) (HPC) 103 % of control | [10] 90 % of control | dose: 200.0 mg/kg/injection, schedule: Q01DX001 (ip), vehicle: Klucel (hydroxypropylcellulose) (HPC) 96 % of control | [11] 86 % of control | dose: 400.0 mg/kg/injection, schedule: Q01DX001 (ip), vehicle: Klucel (hydroxypropylcellulose) (HPC) 92 % of control | [12] 91 % of control

O=[N+]([O-])c1ccccc1N=Nc1c(O)[nH]c2c(Cl)cccc12
inactive: [1] 97 % of control | [2] 100 % of control | dose: 400.0 mg/kg/injection, schedule: Q01DX001 (ip), vehicle: saline 97 % of control

C=C1CC2(CCC3(CC2)OCCO3)OC1=O
inactive: dose: 100.0 mg/kg/injection, schedule: Q01DX001 (ip), vehicle: saline with Tween-80 95 % of control | dose: 200.0 mg/kg/injection, schedule: Q01DX001 (ip), vehicle: saline with Tween-80 95 % of control | dose: 400.0 mg/kg/injection, schedule: Q01DX001 (ip), vehicle: saline with Tween-80 98 % of control

O=C(Nc1cccc2ccccc12)C(Cl)Cl
inactive: [3] 100 % of control | [4] 93 % of control | [5] 93 % of control

CN1Cc2ccccc2-c2ccccc2C1
inactive: dose: 75.0 mg/kg/injection, schedule: Q01DX001 (ip), vehicle: saline 101 % of control

CCC(C)C(CCN(CC)CC)(CNC(=O)CN(CC)CC)c1cccc2ccccc12 (centres undefined)
inactive: dose: 100.0 mg/kg/injection, schedule: Q01DX009 (ip), vehicle: saline 97 % of control

Cc1ccc(C(c2ccc(C)cc2)C(Cl)Cl)cc1
inactive: dose: 100.0 mg/kg/injection, schedule: Q01DX009 (ip), vehicle: saline with Tween-80 96 % of control | dose: 200.0 mg/kg/injection, schedule: Q01DX009 (ip), vehicle: saline with Tween-80 109 % of control | dose: 400.0 mg/kg/injection, schedule: Q01DX009 (ip), vehicle: saline with Tween-80 107 % of control
